The first assay has as its system human bronchial epithelial cells, CFTR corrector, plate reader. In words: CFTR ΔF508 corrector activity in bronchial cells, dose response, human bronchial epithelial cells, plate reader, cherry-pick, two tests (AID 743267). The note with it: measured here: test 1 replicate run.
`COc1ccc(S(=O)(=O)Nc2ccc3c(c2)C(=O)N([C@H](C)CO)C[C@@H](C)[C@@H](CN(C)Cc2ccc(Cl)c(Cl)c2)O3)cc1`: the AC50 (in general, the midpoint of the concentration-response curve, whichever way the signal moves) was determined as 4.82 µM. In other words, the single-digit micromolar range. Compound `O=C1CN(S(=O)(=O)Cc2ccccc2)C[C@@H]2[C@@H](c3ccc(C#Cc4cccc(F)c4)cc3)[C@H](CO)N12` showed an AC50 of 16 µM. As for `C[C@@H]1CN([C@H](C)CO)S(=O)(=O)c2ccc(C#CC3CC3)cc2O[C@H]1CN(C)Cc1ccccn1`, the concentration at half-maximal activity (AC50) was 11.8 µM. The AC50 values of the last two compounds are within 1.5-fold of each other. Take `COc1ccc(S(=O)(=O)Nc2ccc3c(c2)C(=O)N([C@H](C)CO)C[C@@H](C)[C@@H](CN(C)Cc2ccc(C(F)(F)F)cc2)O3)cc1`: the AC50 was greater than 50 µM. Compound `CN1c2ccc(-c3ccc(C#N)cc3)cc2[C@H]2[C@H](CCN2S(=O)(=O)c2cccc(F)c2)[C@H]1CO` registered an AC50 of 0.128 µM. For the compound `Cc1ccc(-c2ccc3c(c2)O[C@@H](CN(C)Cc2ccccn2)[C@H](C)CN([C@H](C)CO)S3(=O)=O)cc1`, the AC50 turned out to be 13.6 µM. This AC50 lies about 110-fold higher than the previous one. As for `COc1cccc(S(=O)(=O)N2C[C@@H]3N[C@H](C2)C3c2ccc(-c3cccc(C)c3)cc2)c1` (some centres not stated), the AC50 worked out at 16 µM.

Take `COc1ccc(S(=O)(=O)N2CC[C@@H]3[C@H](CO)N(C)c4ccc(-c5ccc(F)cc5)cc4[C@@H]32)cc1`: the AC50 came to 16 µM.

In turn, `C[C@H]1CN([C@@H](C)CO)S(=O)(=O)c2ccc(-c3ccc(C#N)cc3)cc2O[C@@H]1CN(C)Cc1ccccn1` came in with an AC50 of 3.39 µM. Turning to `O=C(C1CC1)N1CC(=O)N2[C@H](CO)[C@@H](c3ccc(-c4ccccc4F)cc3)[C@@H]2C1`, the AC50 is 8.99 µM. Compared with the last compound, the AC50 is about 2.7-fold higher. Turning to `N#Cc1ccc(-c2ccc3c(c2)[C@H]2[C@H](CCN2S(=O)(=O)c2ccccc2F)[C@@H](CO)N3)cc1`, the AC50 is 6.96 µM. In turn, `CN1c2ccc(-c3ccc(F)cc3)cc2[C@H]2[C@H](CCN2S(=O)(=O)c2cccc(F)c2)[C@@H]1CO` came in with an AC50 of 7.66 µM.

The assay is the same for the next values; noted with them: measured here: test 2 replicate run.
With `COc1cc(C(=O)Nc2ccc(C)cc2)c2ccccc2n1`, the AC50 was found to be 1.26 µM.

`CC(OC(=O)CCCC(=O)Nc1ccc(F)cc1)C(=O)c1ccccc1` (configuration not stated) gave an AC50 greater than 50 µM.

Compound `CC1OC(OC2CC(O)C3(CO)C4C(O)CC5(C)C(C6=CC(=O)OC6)CCC5(O)C4CCC3(O)C2)C(O)C(O)C1O` (configuration not stated) showed a half-maximal activity concentration (AC50) of 3.38 µM. This lies in the single-digit micromolar range. The compound `Cc1occc1C(=O)N/N=C/c1c(O)ccc2ccccc12` came in with a concentration at half-maximal activity (AC50) of 1.84 µM. `Cn1cc(C(=O)OCC2CCN(CCNS(C)(=O)=O)CC2)c2ccccc21` came in with an AC50 greater than 50 µM. On to `CCN1/C(=C/c2ccc3cc(C)cc(C)c3[n+]2CC)Sc2cc(C)ccc21`, for which the AC50 stood at 12.4 µM. This counts as double-digit micromolar. Consider `CCN(C(=O)CSc1nnc(C)n1-c1ccc(C)cc1)c1c(N)n(Cc2ccccc2)c(=O)[nH]c1=O`, for which the AC50 is greater than 50 µM. The same measure, in the same setting: to `COc1ccccc1NC(=S)N(Cc1ccco1)Cc1cc2cc(C)cc(C)c2[nH]c1=O` belongs 7 µM; to `Cc1cc(C(=O)NNC(=O)c2ccc(Cl)c(S(N)(=O)=O)c2)c(C)o1`, 6.93 µM. For the compound `COc1ccc2c(c1)sc(N)[n+]2Cc1cc(C)cc2cccnc12`, the AC50 is 1.04 µM. The same measure, in the same setting: to `Cc1cc(C(=O)N/N=C/c2ccc([N+](=O)[O-])cc2)c2ccccc2n1` belongs 3.96 µM. Turning to `CCCOCCOC(=O)c1[nH]c2c(c1C)C(=O)CC(c1cc(OC)ccc1OC)C2` (configuration not stated), the AC50 stood at 3.69 µM. `CC(=O)Nc1ccc(NC(=O)COc2cccc3c2OC(C)(C)C3)cc1` returned an AC50 greater than 50 µM. `CC(=O)c1cccc(Nc2c3c(nc4ccccc24)CCC3)c1` gave an AC50 of 2.69 µM. Turning to `COc1ccc(C2C3=C(COC3=O)Oc3cc4c(cc32)OCO4)cc1OC` (configuration not stated), the AC50 was determined as 3.72 µM. The compound `O=c1[nH]c(/C=C/c2ccccc2F)nc2ccccc12` came in with an AC50 of 2.69 µM. As for `CCN(CC)C1=CC2=CC(=C(C#N)C#N)CCC2CC1` (configuration not stated), the AC50 worked out at 0.948 µM. On the same count and under the same terms, to `O=C(NCc1ccccc1)C1Cc2c(-c3ccc(Cl)cc3)ccnc2O1` (configuration not stated) belongs 2.18 µM. Same read-out and setting: under `CCOC(=O)/C(=C/C=C1\Sc2cc(C)c(C)cc2N1CC)C(C)=O` stands 13.6 µM; under `O=C(/C=C/c1ccco1)NC(=S)Nc1nc(-c2ccc3ccccc3c2)cs1`, 3.34 µM; under `Cc1ccc(COc2ccccc2-c2cc(C(=O)N/N=C/c3cccnc3)[nH]n2)cc1`, greater than 50 µM. In the case of `CN(C[C@H](Cc1ccccc1)N(C[C@H](Cc1ccccc1)N(CCC(C)(C)C)N=O)N=O)N=O`, the AC50 came to 47.9 µM. Compound `O=C(Nc1ccc(Br)cn1)c1cccc2ccccc12` yielded an AC50 of 1.97 µM. Against the preceding compound, the AC50 is about 24-fold lower. For the compound `CC(=O)N1CCc2cc(S(=O)(=O)N3c4ccccc4CC3C)ccc21` (configuration not stated), the AC50 amounted to 6.73 µM. `COc1cc2c(c(Br)c1N)-c1cc(Br)c(N)cc1C2=O` returned an AC50 greater than 50 µM. In turn, `CCN(CC(=O)Nc1c(F)cccc1F)C(=O)C1CC1` gave an AC50 of 33.1 µM. In other words, the double-digit micromolar range. As to `Clc1ccc(SCc2cc(N3CCOCC3)nc(-c3ccccn3)n2)cc1`, the AC50 stood at 4.5 µM.

Turning to `COc1ccc(O)c(/C=N/NC(=O)c2ccc(N3CCCC3=O)cc2)c1`, the AC50 is 8.14 µM.

Compound `CCN(CC)CCCNc1ccc2ncn3c4ccc(O)cc4c(=O)c1c23` had an AC50 of 1.8 µM. This AC50 is about 4.5-fold lower than that of the compound before. The same measure, in the same setting: under `O=Cc1ccccc1OCc1ccc2c(c1)OCO2` stands 14.5 µM; under `CN(C)S(=O)(=O)c1ccc2c(c1)/C(=C/c1cc3c([nH]1)CCCC3)C(=O)N2`, 6.59 µM. On the same count and under the same terms, under `COc1cc([C@@H]2c3cc4c(cc3[C@@H](OC)[C@H]3COC(=O)[C@H]23)OCO4)cc(OC)c1O` stands 2.52 µM; under `Cc1ccc2cc(CN(CC3CCCO3)C(=S)Nc3ccccc3)c(=O)[nH]c2c1C` (configuration not stated), 3.16 µM; under `Cc1ccc(S(=O)(=O)N2C[C@H]3[C@H]4C(=O)N(C)C(=O)[C@H]4CC(=O)[C@H]3[C@@H]2c2ccccc2F)cc1`, 37.1 µM. Same read-out and setting: to `CCCCC(=NCCc1c(C)[nH]c2ccccc12)C1=C(O)CC(c2ccccc2)CC1=O` (configuration not stated) belongs 3.92 µM; to `COc1cccc(-c2cnc3c(NC(C)=O)cc(-c4cc(F)ccc4OC)cn23)c1`, 11.9 µM. Turning to `CC1(C)OC(c2ccccc2)=C/C(=C/C=C2C(=O)NC(=O)NC2=O)O1`, the AC50 was determined as 24.8 µM. Still for that read-out and setting: to `Cc1noc(C)c1COc1ccc(C(=O)NNC(=O)c2ccccc2)cc1` belongs 6.4 µM. Take `CO[C@@]12[C@@H]3N[C@@H]3CN1C1=C(C(=O)C(N)=C(C)C1=O)[C@@H]2COC(N)=O`: the AC50 is 11.5 µM.

The compound `O=c1cc(-c2ccc(O)c(O)c2)oc2cc(O)cc(O)c12` came in with an AC50 of 29.3 µM. For `CCOC(=O)c1ccc(Nc2sc(C(=O)c3cccc([N+](=O)[O-])c3)c(N)c2C#N)cc1`, the AC50 was found to be 1.84 µM. `COc1ccc(OC)c(/C(C)=N\NC(=O)c2cc3cc(Cl)ccc3n2C)c1` showed an AC50 of 8.3 µM. Take `COc1cc(Nc2c3c(nc4ccccc24)CCC3)cc(OC)c1OC`: the AC50 was determined as 1.97 µM. For `Clc1cccc(-c2ccc(C=Nc3ccc(N4CCOCC4)cc3)o2)c1Cl`, the AC50 was greater than 50 µM. As for `CCOP(=O)(C#Cc1ccccc1)C(O)c1ccc(Br)cc1` (configuration not stated), the AC50 is greater than 50 µM. Same read-out and setting: under `COc1ccc2c(c1)/C(=C/c1cc(OC)c(OC)c(OC)c1)C(=O)N2` stands 2.04 µM; under `O=C1NC(=Nc2ccc(O)cc2)S/C1=C/c1ccco1`, 4.91 µM. As to `CCC(=O)NC(c1ccc(C)cc1)c1ccc2cccnc2c1O` (configuration not stated), the AC50 is greater than 50 µM. The compound `Nc1ccc2ccc3cccc[n+]3c2c1` came in with an AC50 of 21.3 µM. The compound `COc1cc(/C=C(\C#N)C(=O)c2c[nH]c3ccccc23)cc(OC)c1O` returned an AC50 of 8.32 µM. Compared with the last compound, the AC50 is about 2.6-fold lower. `COc1ccc(OC)c(C(=O)Cn2nnc(-c3ccc(N4CCOCC4)cc3)n2)c1` returned an AC50 of 31.1 µM. Same read-out and setting: to `O=C(CSC1=NCCN1)Nc1cccc([N+](=O)[O-])c1` belongs 14.1 µM; to `O=C1/C(=C\c2ccc(O)cc2)SC(=S)N1Cc1ccccc1`, 20.5 µM. Take `Fc1ccc(/C=N/NC(=S)Nc2ccc(Cl)cc2Cl)cc1`: the AC50 turned out to be 32.2 µM. `Nc1nn(-c2ccccc2)c(N)c1N=Nc1cccc(F)c1` displayed an AC50 of 2.04 µM. With `COc1cc(C(=O)c2cocc2C(=O)c2ccc3c(c2)OCO3)cc(OC)c1OC`, the AC50 was 0.451 µM.

Regarding `Cc1cc(C(=O)N/N=C/c2ccc(N(C)C)cc2)c2ccccc2n1`, the AC50 was found to be 5.44 µM. Turning to `c1ccc(CCNc2nc(-c3ccccn3)nc3ccccc23)cc1`, the AC50 is 2.77 µM. Regarding `COC(=O)/C=C/c1ccccc1S(=O)(=O)N(Cc1ccccc1)Cc1ccco1`, the AC50 stood at 3.04 µM.

In the case of `COc1cc(OC)cc(C(=O)c2c(C)c(C#N)c3ccccn23)c1`, the AC50 stood at 1.8 µM. The compound `COc1cc(NC(=O)COC(=O)c2n[nH]c3ccccc23)c(C)cc1[N+](=O)[O-]` returned an AC50 of 36.6 µM. This AC50 is about 20-fold higher than that of the compound before. Compound `COc1ccc(C(=O)c2cc(OC)c(OC)c(OC)c2)cc1OC` yielded an AC50 of 2.72 µM.

Consider `N#C/C(=C(/O)c1ccc(Br)s1)c1nc2ccccc2[nH]1`, for which the half-maximal activity concentration (AC50) is 3.88 µM.

In the case of `COc1ccc(-c2cc(NC=O)c3ncc(-c4ccc(OC)c(OC)c4)n3c2)cc1`, the AC50 turned out to be 22.3 µM. In turn, `COc1ccc(Nc2nc3cc(-c4sccc4C)sc3c(=O)n2C)cc1OC` showed an AC50 of 2.15 µM. Consider `NC(=O)N=Nc1c2[nH]c3ccccc3nc-2c2ccccc12`, for which the AC50 is 8.41 µM. The compound `COc1cc(OC)cc(-c2cc3ccc(OC)cc3cn2)c1` came in with an AC50 of 43.6 µM. Turning to `COc1cccc(C2=CC(c3ccccc3)n3nnnc3N2)c1` (configuration not stated), the AC50 was found to be 3.85 µM. This AC50 is about 11-fold lower than that of the compound before. With `CN(C)/C=C1\C=C2C(=O)c3ccccc3N2C1=O`, the AC50 is 5.5 µM. In the case of `Nc1ccn([C@@H]2O[C@H](CO)[C@@H](O)[C@@H]2O)c(=O)n1`, the half-maximal activity concentration (AC50) amounted to 0.541 µM. As for `COC(=O)c1ccc(/C=C/c2c(-c3ccc(OC)cc3)oc3ccc(N4CCOCC4)cc23)cc1`, the half-maximal activity concentration (AC50) was found to be 16 µM. In the case of `CC(=O)N1CCc2c(sc(NC(=O)c3ccc4c(c3)OCCO4)c2C#N)C1`, the AC50 turned out to be 7.74 µM. Regarding `Cc1cc2nnc(SCC(=O)NCc3ccco3)n2c2ccccc12`, the AC50 came out at 6.63 µM. Regarding `O=C(N=Nc1c(O)[nH]c2ccc(Br)cc12)c1ccccc1-n1cccc1`, the AC50 was 2.33 µM. Against the preceding compound, the AC50 is about 2.8-fold lower. In the case of `COc1ccccc1NS(=O)(=O)c1cc(N=N/C(C(=O)Nc2ccc(Cl)cc2)=C(/C)O)ccc1C`, the AC50 worked out at 36.6 µM. Against the preceding compound, the AC50 is about 16-fold higher.

As to `Cn1cccc1/C=C1\SC(=Nc2ccccc2)NC1=O`, the AC50 came to 2.89 µM. `COc1ccc(Nc2nc(-c3sc(C)nc3C)cs2)c(OC)c1` returned an AC50 of 12.3 µM.

The compound `O=c1ccc2c(-c3ccccc3)c3ccc(O)cc3oc-2c1` gave an AC50 of 2.2 µM. As for `COc1ccc(N2CCc3c(C)nc4c(OC)cc(OC)cc4c32)cc1`, the AC50 was greater than 50 µM. As to `COc1ccccc1C(=O)NC(=S)/C=C1/N(C)c2ccccc2C1(C)C`, the AC50 was greater than 50 µM.
